pIC50: −log10 of the molar value.
Columns and labels:
[1] = target: PDPK1 (human) (UniProt O15530); assay: radiometric filter-binding kinase assay
[2] = target: PRKDC (human) (UniProt P78527); assay: radiometric filter-binding kinase assay
[3] = target: MET (human) (UniProt P08581); assay: radiometric filter-binding kinase assay
[4] = target: KDR (human) (UniProt P35968); assay: radiometric filter-binding kinase assay
[5] = target: AXL (human) (UniProt P30530); assay: radiometric filter-binding kinase assay
[6] = target: CSF1R (human) (UniProt P07333); assay: radiometric filter-binding kinase assay
[7] = target: TEK (human) (UniProt Q02763); assay: radiometric filter-binding kinase assay
[8] = target: PHKG1 (human) (UniProt Q16816); assay: SelectScreen, TR FRET; details: compound 5.0 µM
[9] = target: PKN1 (human) (UniProt Q16512); assay: SelectScreen, TR FRET; details: compound 5.0 µM
[10] = target: STK4 (human) (UniProt Q13043); assay: SelectScreen, TR FRET; details: compound 5.0 µM
[11] = target: EPHB3 (human) (UniProt P54753); assay: SelectScreen, TR FRET; details: compound 5.0 µM
[12] = target: EPHB1 (human) (UniProt P54762); assay: SelectScreen, TR FRET; details: compound 5.0 µM
Chain of EPHB1 (human) (P54762 whole entry, looked up): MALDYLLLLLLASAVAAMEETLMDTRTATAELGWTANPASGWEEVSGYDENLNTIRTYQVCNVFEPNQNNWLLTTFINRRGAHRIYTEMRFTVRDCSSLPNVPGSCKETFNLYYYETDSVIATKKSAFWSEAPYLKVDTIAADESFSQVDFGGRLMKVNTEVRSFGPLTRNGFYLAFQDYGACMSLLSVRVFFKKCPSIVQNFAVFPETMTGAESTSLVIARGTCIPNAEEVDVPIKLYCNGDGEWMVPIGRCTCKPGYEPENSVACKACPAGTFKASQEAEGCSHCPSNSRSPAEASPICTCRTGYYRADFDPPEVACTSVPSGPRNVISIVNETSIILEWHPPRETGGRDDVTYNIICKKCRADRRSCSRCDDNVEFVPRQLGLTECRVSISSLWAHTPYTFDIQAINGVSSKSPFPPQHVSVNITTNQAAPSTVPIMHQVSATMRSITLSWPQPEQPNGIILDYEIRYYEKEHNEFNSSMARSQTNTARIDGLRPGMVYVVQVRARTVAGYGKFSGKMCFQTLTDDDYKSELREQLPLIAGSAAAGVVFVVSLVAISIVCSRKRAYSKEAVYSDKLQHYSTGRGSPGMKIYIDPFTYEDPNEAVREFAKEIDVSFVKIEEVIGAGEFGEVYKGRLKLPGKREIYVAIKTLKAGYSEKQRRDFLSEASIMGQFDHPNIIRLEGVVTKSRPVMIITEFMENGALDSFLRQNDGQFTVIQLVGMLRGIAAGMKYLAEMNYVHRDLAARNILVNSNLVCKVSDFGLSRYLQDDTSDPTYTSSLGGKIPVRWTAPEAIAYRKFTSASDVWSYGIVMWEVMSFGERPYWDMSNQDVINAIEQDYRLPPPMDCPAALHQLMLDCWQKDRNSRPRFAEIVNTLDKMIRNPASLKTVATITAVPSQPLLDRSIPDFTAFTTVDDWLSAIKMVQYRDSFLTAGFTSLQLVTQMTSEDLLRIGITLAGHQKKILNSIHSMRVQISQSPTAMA

[13] = target: EPHA4 (human) (UniProt P54764); assay: SelectScreen, TR FRET; details: compound 5.0 µM
Chain of EPHA4 (human) (P54764 whole entry, looked up): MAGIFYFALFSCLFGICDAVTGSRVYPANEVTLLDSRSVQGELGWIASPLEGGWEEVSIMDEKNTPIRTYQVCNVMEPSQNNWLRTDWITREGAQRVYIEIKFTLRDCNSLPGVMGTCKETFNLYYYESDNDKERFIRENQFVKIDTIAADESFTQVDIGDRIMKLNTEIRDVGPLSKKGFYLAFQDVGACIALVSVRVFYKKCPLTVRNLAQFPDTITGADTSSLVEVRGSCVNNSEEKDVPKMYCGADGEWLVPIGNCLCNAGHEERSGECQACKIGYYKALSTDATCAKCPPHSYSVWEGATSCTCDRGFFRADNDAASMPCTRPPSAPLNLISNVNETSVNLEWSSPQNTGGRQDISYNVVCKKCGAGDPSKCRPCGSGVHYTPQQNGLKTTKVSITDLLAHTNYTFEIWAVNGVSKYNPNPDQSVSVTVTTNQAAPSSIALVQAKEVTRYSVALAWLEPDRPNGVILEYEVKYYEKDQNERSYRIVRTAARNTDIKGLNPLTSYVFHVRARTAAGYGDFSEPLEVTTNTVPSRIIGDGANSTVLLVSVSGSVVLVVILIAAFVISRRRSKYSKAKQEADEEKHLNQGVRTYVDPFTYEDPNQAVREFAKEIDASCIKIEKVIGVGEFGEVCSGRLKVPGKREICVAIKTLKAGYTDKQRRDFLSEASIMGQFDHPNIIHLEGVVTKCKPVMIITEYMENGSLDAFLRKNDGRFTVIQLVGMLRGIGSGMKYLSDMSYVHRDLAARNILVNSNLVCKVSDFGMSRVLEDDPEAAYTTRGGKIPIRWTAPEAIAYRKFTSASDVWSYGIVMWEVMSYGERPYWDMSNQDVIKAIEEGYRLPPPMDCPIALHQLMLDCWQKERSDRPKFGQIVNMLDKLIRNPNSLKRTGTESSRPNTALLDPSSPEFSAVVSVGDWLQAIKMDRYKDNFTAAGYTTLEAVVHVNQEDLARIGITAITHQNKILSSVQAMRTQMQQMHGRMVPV

[14] = target: PRKCH (human) (UniProt P24723); assay: SelectScreen, TR FRET; details: compound 5.0 µM
[15] = target: PRKACA (human) (UniProt P17612); assay: SelectScreen, TR FRET; details: compound 5.0 µM
[16] = target: TAOK2 (human) (UniProt Q9UL54); assay: SelectScreen, TR FRET; details: compound 5.0 µM
Chain of TAOK2 (human) (Q9UL54 whole entry, looked up): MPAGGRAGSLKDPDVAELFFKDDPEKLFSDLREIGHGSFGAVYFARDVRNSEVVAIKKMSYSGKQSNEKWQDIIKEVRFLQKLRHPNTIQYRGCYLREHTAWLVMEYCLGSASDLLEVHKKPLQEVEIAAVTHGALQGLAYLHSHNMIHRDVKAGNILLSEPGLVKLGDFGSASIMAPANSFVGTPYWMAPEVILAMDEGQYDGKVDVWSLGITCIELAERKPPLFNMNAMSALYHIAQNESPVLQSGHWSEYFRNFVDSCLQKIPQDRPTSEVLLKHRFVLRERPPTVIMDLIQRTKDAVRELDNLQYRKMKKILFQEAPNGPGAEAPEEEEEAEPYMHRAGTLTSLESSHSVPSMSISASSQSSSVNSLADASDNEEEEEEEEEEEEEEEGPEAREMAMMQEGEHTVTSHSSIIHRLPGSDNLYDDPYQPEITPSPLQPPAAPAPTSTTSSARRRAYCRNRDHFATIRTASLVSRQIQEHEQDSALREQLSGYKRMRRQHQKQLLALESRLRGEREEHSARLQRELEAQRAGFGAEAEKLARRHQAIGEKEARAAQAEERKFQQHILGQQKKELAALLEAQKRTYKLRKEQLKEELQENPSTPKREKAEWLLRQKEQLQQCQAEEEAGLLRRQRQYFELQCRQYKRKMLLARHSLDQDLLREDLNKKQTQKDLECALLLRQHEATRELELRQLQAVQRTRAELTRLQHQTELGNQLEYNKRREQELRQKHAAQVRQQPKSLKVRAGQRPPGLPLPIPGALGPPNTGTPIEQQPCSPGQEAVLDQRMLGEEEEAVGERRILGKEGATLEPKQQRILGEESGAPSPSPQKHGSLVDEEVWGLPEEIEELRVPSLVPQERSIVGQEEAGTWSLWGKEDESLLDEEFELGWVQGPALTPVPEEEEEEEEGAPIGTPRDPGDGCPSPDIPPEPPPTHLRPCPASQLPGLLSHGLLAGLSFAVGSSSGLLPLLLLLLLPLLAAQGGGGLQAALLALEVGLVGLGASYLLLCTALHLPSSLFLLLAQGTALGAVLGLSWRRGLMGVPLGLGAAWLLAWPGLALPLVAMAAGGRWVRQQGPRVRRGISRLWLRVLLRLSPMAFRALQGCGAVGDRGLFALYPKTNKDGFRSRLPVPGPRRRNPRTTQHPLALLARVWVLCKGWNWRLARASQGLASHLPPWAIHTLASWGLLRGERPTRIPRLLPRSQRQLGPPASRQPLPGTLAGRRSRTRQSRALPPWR

[17] = target: SRMS (human) (UniProt Q9H3Y6); assay: SelectScreen, TR FRET; details: compound 5.0 µM
[18] = target: AURKA (human) (UniProt O14965); assay: SelectScreen, TR FRET; details: compound 5.0 µM
Chain of AURKA (human) (O14965 whole entry, looked up): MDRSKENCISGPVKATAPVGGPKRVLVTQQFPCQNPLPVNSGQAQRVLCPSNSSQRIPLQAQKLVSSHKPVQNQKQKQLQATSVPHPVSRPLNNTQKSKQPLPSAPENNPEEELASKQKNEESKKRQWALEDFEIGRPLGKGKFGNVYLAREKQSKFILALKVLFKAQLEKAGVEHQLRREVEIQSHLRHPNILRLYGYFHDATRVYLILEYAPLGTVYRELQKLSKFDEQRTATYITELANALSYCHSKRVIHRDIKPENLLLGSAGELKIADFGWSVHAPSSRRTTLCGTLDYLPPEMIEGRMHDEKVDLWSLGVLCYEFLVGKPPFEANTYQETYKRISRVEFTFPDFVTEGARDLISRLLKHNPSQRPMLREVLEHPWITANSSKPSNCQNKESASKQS

[19] = target: KIT (human) (UniProt P10721); assay: SelectScreen, TR FRET; details: compound 5.0 µM
[20] = target: LYN (human) (UniProt P07948); assay: SelectScreen, TR FRET; details: compound 5.0 µM
[21] = target: ALK (human) (UniProt Q9UM73); assay: SelectScreen, TR FRET; details: compound 5.0 µM
[22] = system: ABL1 (human), P00519 [E255K]; assay: SelectScreen, TR FRET; details: compound 5.0 µM
[23] = target: EGFR (human) (UniProt P00533); assay: SelectScreen, TR FRET; details: compound 5.0 µM
[24] = target: NTRK3 (human) (UniProt Q16288); assay: SelectScreen, TR FRET; details: compound 5.0 µM
[25] = target: FLT1 (human) (UniProt P17948); assay: SelectScreen, TR FRET; details: compound 5.0 µM
[26] = target: PRKD2 (human) (UniProt Q9BZL6); assay: SelectScreen, TR FRET; details: compound 5.0 µM
[27] = target: CLK1 (human) (UniProt P49759); assay: SelectScreen, TR FRET; details: compound 5.0 µM
Chain of CLK1 (human) (P49759 whole entry, looked up): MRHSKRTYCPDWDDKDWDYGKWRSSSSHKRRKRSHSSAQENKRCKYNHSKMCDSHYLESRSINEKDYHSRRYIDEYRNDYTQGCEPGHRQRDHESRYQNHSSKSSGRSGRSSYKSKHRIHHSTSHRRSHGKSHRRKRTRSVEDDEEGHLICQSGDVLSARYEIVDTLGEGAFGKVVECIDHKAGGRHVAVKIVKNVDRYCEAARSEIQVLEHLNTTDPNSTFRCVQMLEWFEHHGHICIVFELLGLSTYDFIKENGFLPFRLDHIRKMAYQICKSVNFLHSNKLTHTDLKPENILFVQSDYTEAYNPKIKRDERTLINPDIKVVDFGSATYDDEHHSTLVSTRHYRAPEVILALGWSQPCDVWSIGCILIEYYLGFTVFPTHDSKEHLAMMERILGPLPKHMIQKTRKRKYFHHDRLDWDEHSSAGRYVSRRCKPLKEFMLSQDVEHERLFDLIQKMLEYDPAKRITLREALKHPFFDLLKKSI

[28] = target: SRPK2 (human) (UniProt P78362); assay: SelectScreen, TR FRET; details: compound 5.0 µM
[29] = target: STK24 (human) (UniProt Q9Y6E0); assay: SelectScreen, TR FRET; details: compound 5.0 µM
Chain of STK24 (human) (Q9Y6E0 whole entry, looked up): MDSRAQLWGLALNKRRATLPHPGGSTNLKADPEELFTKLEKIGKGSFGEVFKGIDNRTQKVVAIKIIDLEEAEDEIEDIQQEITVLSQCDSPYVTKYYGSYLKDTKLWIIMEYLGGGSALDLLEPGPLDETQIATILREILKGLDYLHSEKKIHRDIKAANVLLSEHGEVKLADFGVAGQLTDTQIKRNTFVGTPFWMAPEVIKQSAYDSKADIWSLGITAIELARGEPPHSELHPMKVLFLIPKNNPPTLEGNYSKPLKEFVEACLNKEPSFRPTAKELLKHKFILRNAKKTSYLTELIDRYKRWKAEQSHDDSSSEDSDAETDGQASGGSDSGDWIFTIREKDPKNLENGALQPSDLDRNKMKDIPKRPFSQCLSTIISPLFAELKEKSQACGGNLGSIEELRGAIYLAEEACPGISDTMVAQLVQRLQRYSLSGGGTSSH

[30] = target: ABL1 (human) (UniProt P00519); assay: SelectScreen, TR FRET; details: compound 5.0 µM
[31] = target: CSK (human) (UniProt P41240); assay: SelectScreen, TR FRET; details: compound 5.0 µM
Chain of CSK (human) (P41240 whole entry, looked up): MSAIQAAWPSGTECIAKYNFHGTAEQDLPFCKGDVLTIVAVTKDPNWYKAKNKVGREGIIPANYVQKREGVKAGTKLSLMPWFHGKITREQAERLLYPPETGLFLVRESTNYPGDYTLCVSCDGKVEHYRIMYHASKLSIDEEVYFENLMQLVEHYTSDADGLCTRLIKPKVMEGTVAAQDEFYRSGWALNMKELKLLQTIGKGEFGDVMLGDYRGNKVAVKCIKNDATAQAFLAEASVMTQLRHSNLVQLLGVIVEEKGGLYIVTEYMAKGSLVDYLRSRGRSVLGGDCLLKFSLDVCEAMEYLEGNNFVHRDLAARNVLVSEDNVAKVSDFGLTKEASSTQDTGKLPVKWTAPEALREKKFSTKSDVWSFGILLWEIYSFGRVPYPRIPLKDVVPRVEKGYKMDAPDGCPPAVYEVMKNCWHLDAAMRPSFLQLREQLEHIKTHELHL

[32] = target: PRKCE (human) (UniProt Q02156); assay: SelectScreen, TR FRET; details: compound 5.0 µM
[33] = target: NEK1 (human) (UniProt Q96PY6); assay: SelectScreen, TR FRET; details: compound 5.0 µM
[34] = target: AKT3 (human) (UniProt Q9Y243); assay: SelectScreen, TR FRET; details: compound 5.0 µM
[35] = target: ROCK1 (human) (UniProt Q13464); assay: SelectScreen, TR FRET; details: compound 5.0 µM
[36] = target: DAPK3 (human) (UniProt O43293); assay: SelectScreen, TR FRET; details: compound 5.0 µM
[37] = target: ROCK2 (human) (UniProt O75116); assay: SelectScreen, TR FRET; details: compound 5.0 µM
[38] = target: GRK6 (human) (UniProt P43250); assay: SelectScreen, TR FRET; details: compound 5.0 µM
[39] = target: CSNK1G1 (human) (UniProt Q9HCP0); assay: SelectScreen, TR FRET; details: compound 5.0 µM
[40] = target: MAPK3 (human) (UniProt P27361); assay: SelectScreen, TR FRET; details: compound 5.0 µM
[41] = target: ATR (human) (UniProt Q13535); assay: Alphascreen

## Nc1cc(C(F)(F)F)c(-c2cc(N3CCOCC3)nc(N3CCOCC3)n2)cn1
[1]
  pIC50: < 5.00
[2]
  pIC50: < 5.00
[3]
  pIC50: < 5.00
[4]
  pIC50: < 5.00
[5]
  pIC50: < 5.00
[6]
  pIC50: 6.24
[7]
  pIC50: < 5.00
[8]
  inhibition: 11%
[9]
  inhibition: 9%
[10]
  inhibition: 14%
[11]
  inhibition: -1%
[12]
  inhibition: 3%
[13]
  inhibition: 9%
[14]
  inhibition: 4%
[15]
  inhibition: 0%
[16]
  inhibition: 6%
[17]
  inhibition: 13%
[18]
  inhibition: 34%
[19]
  inhibition: 39%
[20]
  inhibition: 6%
[21]
  inhibition: 1%
[22]
  inhibition: -4%
[23]
  inhibition: 3%
[24]
  inhibition: 4%
[25]
  inhibition: 2%
[26]
  inhibition: 2%
[27]
  inhibition: 32%
[28]
  inhibition: 7%
[29]
  inhibition: 7%
[30]
  inhibition: 3%
[31]
  inhibition: 5%
[32]
  inhibition: 2%
[33]
  inhibition: 8%
[34]
  inhibition: 3%
[35]
  inhibition: -2%
[36]
  inhibition: 1%
[37]
  inhibition: 3%
[38]
  inhibition: 4%
[39]
  inhibition: 1%
[40]
  inhibition: 7%
[41]
  pIC50: 5.09
